5 compounds from paper PMC6685155, “Simultaneous UPLC–TQ-MS/MS determination of six active components in rat plasma: application in the pharmacokinetic study of Cyclocarya paliurus leaves” (Chinese Medicine, 2019) can be followed below.

SMILES strings stand for the structures.

The data set can be described thus: Pharmacokinetic study in rats after oral administration of the CP extract (UPLC–TQ-MS/MS of plasma). It counts as in vivo. Conditions: male, Sprague-Dawley, rat plasma, single oral gavage of CP extract 10.5 g/kg, n=6, mean ± SD; for Cmax: non-compartmental. The procedure: Plasma samples were thawed at room temperature before analysis. Then, 10 μl of IS solution (20 μg/ml) and 200 μl of methanol were added to the plasma sample (90 μl) in a 1.5 ml Eppendorf tube. The mixture was vortexed for 1 min and centrifuged at 12,000×g for 10 min at 4 °C to deproteinize. Thereafter, 2 μl of the supernatant was injected into the UPLC–TQ/MS system for analysis.
Six healthy male Sprague–Dawley rats were fasted for 12 h with free access to water prior to the experiment. The CP extract was administered to rats by oral gavage at a dose of 10.5 g/kg body weight. Blood samples of approximately 0.5 ml were collected at 15 and 30 min and at 1 h, 2 h, 3 h, 4 h, 6 h, 8 h, 10 h, 12 h, and 24 h in heparinized centrifuge tubes from the ophthalmic vein using a sterile capillary tube under anesthesia after oral administration of the CP extract. Following centrifugation at 4000×g for 10 min at 4 °C, plasma samples were transferred to polypropylene tubes and stored at − 80 °C until analysis.
The concentrations of six analytes in plasma at different time points were expressed as mean ± SD, which was calculated from the daily calibration curve. All the pharmacokinetic parameters were processed through non-compartmental analysis using the DAS 3.0 pharmacokinetic program. The maximum plasma concentration (Cmax) and time to reach the maximum concentrations (Tmax) were obtained directly from the curve.

Regarding `O=C(/C=C/c1ccc(O)c(O)c1)O[C@@H]1C[C@](O)(C(=O)O)C[C@@H](O)[C@H]1O` [Chlorogenic acid, chlorogenic acid], the AUC(0-inf) is 3580 ± 1200 ng·h/mL, the exposure AUC(0-t) was 3310 ± 1060 ng·h/mL, the Tmax came out at 0.39 ± 0.13 h and the half-life is 2.54 ± 0.53 h. For the same compound, the maximum concentration (Cmax) was found to be 4170 ± 1890 ng/mL.

With `O=c1c(O)c(-c2ccc(O)cc2)oc2cc(O)cc(O)c12` [Kaempferol, kaempferol], the AUC(0-inf) is 325 ± 104 ng·h/mL, the area under the curve AUC(0-t) amounted to 242 ± 77 ng·h/mL, the Tmax came out at 0.67 ± 0.26 h and the half-life was 7.24 ± 1.63 h. Moreover, the concentration peaked (Cmax) at 122 ± 49.9 ng/mL.

With `O=C(/C=C/c1ccc(O)c(O)c1)O[C@@H]1C[C@@](O)(C(=O)O)C[C@@H](O)[C@@H]1O` [Neochlorogenic acid, neochlorogenic acid], the total exposure AUC(0-inf) worked out at 2470 ± 943 ng·h/mL, the exposure AUC(0-t) amounted to 2450 ± 952 ng·h/mL, the time to peak (Tmax) was determined as 0.32 ± 0.12 h and the half-life is 4.54 ± 1.38 h. The Cmax came out at 4330 ± 1610 ng/mL.

Regarding `O=c1c(O)c(-c2ccc(O)c(O)c2)oc2cc(O)cc(O)c12` [Quercetin, quercetin], the area under the curve AUC(0-inf) was 91.7 ± 15.2 ng·h/mL, the AUC(0-t) amounted to 79.8 ± 28.5 ng·h/mL, the Tmax came out at 0.46 ± 0.1 h and the half-life is 11.7 ± 6.01 h. This compound also returned a peak concentration (Cmax) of 28.6 ± 8.23 ng/mL.

As to `O=C(O)[C@H]1O[C@@H](Oc2c(-c3ccc(O)c(O)c3)oc3cc(O)cc(O)c3c2=O)[C@H](O)[C@@H](O)[C@@H]1O` [Quercetin-3-O-glucuronide, quercetin-3-O-glucuronide], the AUC(0-inf) was determined as 13500 ng·h/mL, the area under the curve AUC(0-t) came out at 11000 ng·h/mL, the time of peak concentration (Tmax) is 0.33 ± 0.13 h and the half-life was 10 ± 3.31 h. For the same compound, the Cmax came to 3710 ± 1590 ng/mL.
